Assay results reported in US20100190824A1, “Novel Substituted Piperidones as HSP Inducers” (priority 2007, published 2010).

Columns and labels:
TNF-α mRNA = assay: Inhibition of LPS-induced TNF-α expression in PMA differentiated THP-1 cells; type: cell-based, Human; conditions: LPS (1 ug/ml) and compound for 4 hours, LPS alone as 100%
Method: The purpose of the present study was to determine the inhibition of lipopolysaccharide(LPS)-induced TNF-α expression in phorbol merstyl ester (PMA) differentiated THP-1 cells.
Human monocytic leukaemia cell line (THP-1), differentiated into macrophage-like cells by PMA treatment was employed. Differentiated cells were treated with either LPS (1 ug/ml) alone or with LPS (1 ug/ml) and compound for 4 hours. Total RNA was isolated and expression of TNF-αmRNA along-with expression of 18S rRNA was monitored by real-time PCR. TNF-α mRNA expression was normalized relative to the expression of 18S rRNA Considering TNF-α expression for cells treated with LPS alone as 100%; the results for test compounds were expressed as % inhibition of TNF-α expression and are as shown in Table 4

HSP70b mRNA = assay: Cellular expression of HSP-70 mRNA in primary mixed neurons (real-time PCR); type: cell-based; conditions: fold induction of HSP70b mRNA relative to vehicle treated control; primary mixed neurons from neonatal rat cerebellum; 4 hours; normalized to 18S rRNA
Method: Experiments set forth in this section were conducted to determine whether the compounds of the present invention are able to elevate the expression of HSP-70 gene in cells.
Hela cell-line or primary mixed neurons derived from neonatal rat cerebellum were employed. Induction was carried out for the indicated dose(s) for 4 hours duration and total RNA was isolated. Expression of HSP70b mRNA along-with expression of 18S rRNA was monitored by real-time PCR. HSP70b mRNA expression was normalized relative to the expression of 18S rRNA.
The results for test compounds were expressed as fold induction of HSP-70 mRNA relative to vehicle treated control and are as shown in Table 2 & 3.

Row | Structure (SMILES) | TNF-alpha Inhibition (TNF-α mRNA) | HSP Induction in mixed neuron (HSP70b mRNA)
1 | CC1(C)CN(Cc2ccccc2)CC(=Cc2ccccn2)C1=O [Compound 1, 1-Benzyl-3,3-dimethyl-5-[1-pyridin-2-yl-methylidene]-piperidin-4-one] | (++++) (>80%) | 
2 | CC1(C)CN(C(=O)OCc2ccccc2)CC(=Cc2ccccn2)C1=O [Compound 2, 3,3-Dimethyl-4-oxo-5-[1-pyridin-2-yl-methylidene]-piperidine-1-carboxylic acid benzyl ester] | (+++) (61-80%) | 
3 | CC1(C)CN(Cc2ccccc2)CC(=Cc2ccc(C(=O)N3CCOCC3)cc2)C1=O [Compound 7, 1-Benzyl-3,3-dimethyl-5-[1-[4-(morpholine-4-carbonyl)-phenyl]-methylidene]-piperidin-4-one] | (+++) (61-80%) | 
4 | CSc1ccc(C=C2CN(Cc3ccccc3)CC(C)(C)C2=O)cc1 [Compound 8, 1-Benzyl-3,3-dimethyl-5-[1-(4-methylsulfanyl-phenyl)-methylidene]-piperidin-4-one] | (++++) (>80%) | 
5 | CSc1ccc(C2/C(=C\c3cccc(N4CCOCC4)n3)C(=O)C(C)(C)CN2Cc2ccccc2)cc1 (centres unmarked) [Compound 42, 1-Benzyl-5,5-dimethyl-2-(4-methylsulfanyl-phenyl)-3-[1-(6-morpholin-4-yl-pyridin-2-yl)-meth-(E)-ylidene]-piperidin-4-one] | (++) (41-60%) | (+++) (9-16 fold)
6 | CC1(C)CN(Cc2ccccc2)C(c2ccc(C(F)(F)F)cc2)C(=Cc2cccc(N3CCOCC3)n2)C1=O (centres unmarked) [Compound 43, 1-Benzyl-5,5-dimethyl-3-[1-(6-morpholin-4-yl-pyridin-2-yl)-methylidene]-2-(4-trifluoromethyl-phenyl)-piperidin-4-one] | (++) (41-60%) | (+++) (9-16 fold)
7 | CC1(C)CN(Cc2ccccc2)C(c2ccc(Cl)c(Cl)c2)C(=Cc2ccccn2)C1=O (centres unmarked) [Compound 45, 1-Benzyl-2-(3,4-dichloro-phenyl)-5,5-dimethyl-3-[1-pyridin-2-yl-methylidene]-piperidin-4-one] |  | (++) (5-8 fold)
8 | CSc1ccc(C2C(=Cc3ccccn3)C(=O)C(C)(C)CN2Cc2ccccc2)cc1 (centres unmarked) [Compound 46, 1-Benzyl-5,5-dimethyl-2-(4-methylsulfanyl-phenyl)-3-[1-pyridin-2-yl-methylidene]-piperidin-4-one] | (++) (41-60%) | (+++) (9-16 fold)
9 | COc1ccc(CN2CC(C)(C)C(=O)C(=Cc3ccccn3)C2c2ccccc2)cc1 (centres unmarked) [Compound 47, 1-(4-Methoxy-benzyl)-5,5-dimethyl-2-phenyl-3-[1-pyridin-2-yl-methylidene]-piperidin-4-one] | (+++) (61-80%) | (++++) (>16 fold)
10 | COC(=O)N1CC(=Cc2ccccn2)C(=O)C(C)(C)C1Cc1ccc(OC)cc1 (centres unmarked) [Compound 52, 2-(4-Methoxy-benzyl)-3,3-dimethyl-4-oxo-5-[1-pyridin-2-yl-methylidene]-piperidine-1-carboxylic acid methyl ester] | (++++) (>80%) | (++) (5-8 fold)
11 | CC1(C)CN(Cc2cccs2)C(c2ccccc2F)C(=Cc2cccc(N3CCOCC3)n2)C1=O (centres unmarked) [Compound 57, 2-(2-Fluoro-phenyl)-5,5-dimethyl-3-[1-(6-morpholin-4-yl-pyridin-2-yl)-methylidene]-1-thiophen-2-ylmethyl-piperidin-4-one] |  | (+) (2-4 fold)
12 | CC1(C)CN(Cc2cccs2)C(c2ccccc2F)C(=Cc2ccccn2)C1=O (centres unmarked) [Compound 58, (2-Fluoro-phenyl)-5,5-dimethyl-3-[1-pyridin-2-yl-methylidene]-1-thiophen-2-ylmethyl-piperidin-4-one] |  | (+) (2-4 fold)
13 | COc1ccc(CC2N(C(=S)Nc3ccccc3)CC(=Cc3ccccn3)C(=O)C2(C)C)cc1 (centres unmarked) [Compound 60, 2-(4-Methoxy-benzyl)-3,3-dimethyl-4-oxo-5-[1-pyridin-2-yl-methylidene]-piperidine-1-carbothioic acid phenylamide] | (+++) (61-80%) | (++++) (>16 fold)
14 | CSc1ccc(C2C(=Cc3ccccn3)C(=O)C(C)(C)CN2Cc2cccs2)cc1 (centres unmarked) [Compound 61, 5,5-Dimethyl-2-(4-methylsulfanyl-phenyl)-3-[1-pyridin-2-yl-methylidene]-1-thiophen-2-ylmethyl-piperidin-4-one] | (+++) (61-80%) | (++++) (>16 fold)
15 | COc1ccc(CN2CC(C)(C)C(=O)C(=Cc3cccc(N4CCOCC4)n3)C2c2ccccc2)cc1 (centres unmarked) [Compound 62, 1-(4-Methoxy-benzyl)-5,5-dimethyl-3-[1-(6-morpholin-4-yl-pyridin-2-yl)-methylidene]-2-phenyl-piperidin-4-one] |  | (+) (2-4 fold)
16 | COc1ccc(CN2CC(C)(C)C(=O)C(=Cc3cccc(N4CCOCC4)n3)C2c2ccc(C(F)(F)F)cc2)cc1 (centres unmarked) [Compound 63, 1-(4-Methoxy-benzyl)-5,5-dimethyl-3-[1-(6-morpholin-4-yl-pyridin-2-yl)-methylidene]-2-(4-trifluoromethyl-phenyl)-piperidin-4-one] | (++) (41-60%) | (++) (5-8 fold)
17 | Cc1cc(N2CC(=Cc3ccccn3)C(=O)C(C)(C)C2)no1 [Compound 64, 3,3-Dimethyl-1-(5-methyl-isoxazol-3-yl)-5-[1-pyridin-2-yl-methylidene]-piperidin-4-one] |  | (++++) (>16 fold)
18 | Cc1cc(N2CC(C)(C)C(=O)C(=Cc3cccc(N4CCOCC4)n3)C2c2ccccc2)no1 (centres unmarked) [Compound 65, 5,5-Dimethyl-1-(5-methyl-isoxazol-3-yl)-3-[1-(6-morpholin-4-yl-pyridin-2-yl)-methylidene]-2-phenyl-piperidin-4-one] | (+++) (61-80%) | (+++) (9-16 fold)
19 | COc1ccc(CC2N(C(=O)NCc3ccccc3)CC(=Cc3ccccn3)C(=O)C2(C)C)cc1 (centres unmarked) [Compound 66, 2-(4-Methoxy-benzyl)-3,3-dimethyl-4-oxo-5-[1-pyridin-2-yl-methylidene]-piperidine-1-carboxylic acid benzylamide] |  | (++) (5-8 fold)
20 | CC1(C)CN(CCc2cccs2)CC(=Cc2cccc(N3CCOCC3)n2)C1=O [Compound 69, 3,3-Dimethyl-5-[1-(6-morpholin-4-yl-pyridin-2-yl)-methylidene]-1-(2-thiophen-2-yl-ethyl)-piperidin-4-one] | (+++) (61-80%) | (++++) (>16 fold)
21 | CC1(C)CN(Cc2ccc(F)cc2)CC(=Cc2cccc(N3CCOCC3)n2)C1=O [Compound 73, 1-(4-Fluoro-benzyl)-3,3-dimethyl-5-[1-(6-morpholin-4-yl-pyridin-2-yl)-methylidene]-piperidin-4-one] |  | (+) (2-4 fold)
22 | CC1(C)CN(Cc2ccc(F)cc2)C(c2ccccc2)C(=Cc2ccccn2)C1=O (centres unmarked) [Compound 76, 1-(4-Fluoro-benzyl)-5,5-dimethyl-2-phenyl-3-[1-pyridin-2-yl-methylidene]-piperidin-4-one] |  | (+) (2-4 fold)
23 | CC1(C)CN(Cc2ccc(F)cc2)C(c2ccccc2)C(=Cc2cccc(N3CCOCC3)n2)C1=O (centres unmarked) [Compound 81, 1-(4-Fluoro-benzyl)-5,5-dimethyl-3-[1-(6-morpholin-4-yl-pyridin-2-yl)-methylidene]-2-phenyl-piperidin-4-one] |  | (+) (2-4 fold)
24 | COc1ccc(CN2CC(C)(C)C(=O)C(=Cc3cccc(N4CCOCC4)n3)C2c2ccccc2F)cc1 (centres unmarked) [Compound 86, 2-(2-Fluoro-phenyl)-1-(4-methoxy-benzyl)-5,5-dimethyl-3-[1-(6-morpholin-4-yl-pyridin-2-yl)-methylidene]-piperidin-4-one] |  | (+) (2-4 fold)
25 | COc1ccc(C2C(=Cc3cccc(N4CCOCC4)n3)C(=O)C(C)(C)CN2Cc2ccccc2)c(F)c1 (centres unmarked) [Compound 92, 1-Benzyl-2-(2-fluoro-4-methoxy-phenyl)-5,5-dimethyl-3-[1-(6-morpholin-4-yl-pyridin-2-yl)-methylidene]-piperidin-4-one] |  | (++) (5-8 fold)
26 | CC1(C)CN(CCc2ccccc2)C(c2ccccc2)C(=Cc2ccccn2)C1=O (centres unmarked) [Compound 94, 5,5-Dimethyl-1-phenethyl-2-phenyl-3-[1-pyridin-2-yl-methylidene]-piperidin-4-one] |  | (+) (2-4 fold)
27 | CC1(C)CN(CCc2ccccc2)C(c2ccccc2)C(=Cc2cccc(N3CCOCC3)n2)C1=O (centres unmarked) [Compound 95, 5,5-Dimethyl-3-[1-(6-morpholin-4-yl-pyridin-2-yl)-methylidene]-1-phenethyl-2-phenyl-piperidin-4-one] |  | (++) (5-8 fold)
28 | Cc1ccc(CN2CC(C)(C)C(=O)C(=Cc3cccc(N4CCOCC4)n3)C2c2ccccc2)cc1 (centres unmarked) [Compound 232, 5,5-Dimethyl-1-(4-methyl-benzyl)-3-[1-(6-morpholin-4-yl-pyridin-2-yl)-methylidene]-2-phenyl-piperidin-4-one] |  | (++) (5-8 fold)
